Experimental data reported in patent US20010044382A1, “Herbicide” (priority 1998, published 2001).

Experiments:
Type in all cases: in vivo
Ipomoea = assay: Pre-emergence test (greenhouse), herbicidal action
Experimental: (§1) Experiment Description—Pre-emergence Test:
(§2) The test plants are sown in standard soil in plastics pots under greenhouse conditions. Directly after sowing, the test compounds are applied in aqueous suspension (500 liters of water/ha). The test plants are then grown on in the greenhouse under optimum conditions. The rates of application depend on the optimum doses ascertained under field conditions and greenhouse conditions. The tests are evaluated after 26 days (% action, 100%=plants have died, 0%=no phytotoxic action).

Polygonum = assay: Pre-emergence test (greenhouse), herbicidal action
Experimental: as §1, §2

Xanthium = assay: Pre-emergence test (greenhouse), herbicidal action
Experimental: as §1, §2

Digitaria = assay: Post-emergence test (greenhouse), herbicidal action; details: halosulfuron 100 g/ha, after 20 days
Experimental: (§3) Experiment Description—Post-emergence Test:
(§4) The test plants are grown to the 2- to 3-leaf stage in plastics pots under greenhouse conditions. A standard soil is used as cultivation substrate. At the 2- to 3-leaf stage, the herbicide is applied to the test plants on its own and as a mixture. The application is carried out using an aqueous suspension of the test compounds in 500 liters of water/ha. The rates of application depend on the optimum doses ascertained under field conditions and greenhouse conditions. The tests are evaluated after 20 days (% action, 100%=plant has died, 0%=no phytotoxic action).

Cyperus = assay: as above; details: primisulfuron 20 g/ha, after 20 days
Experimental: as §3, §4

[1] = atrazine 200 g/ha, after 26 days (Table 7)
[2] = atrazine 200 g/ha, after 26 days (Table 5)
[3] = terbuthylazine 200 g/ha, after 26 days (Table 4)
[4] = terbuthylazine 200 g/ha, after 26 days (Table 6)

CCNc1nc(Cl)nc(NC(C)C)n1 [Atrazine, atrazine]
% action (Ipomoea; [1]): 70% | % action (Polygonum; [2]): 90% | % action (Xanthium; [2]): 0% | % action (Xanthium; [1]): 0%

COc1cc(OC)nc(NC(=O)NS(=O)(=O)c2c(C(=O)O)c(Cl)nn2C)n1 [Halosulfuron, halosulfuron]
% action (Digitaria): 25%

O=C(Nc1nc(OC(F)F)cc(OC(F)F)n1)NS(=O)(=O)c1ccccc1C(=O)O [Primisulfuron, primisulfuron]
% action (Cyperus): 90%

CCNc1nc(Cl)nc(NC(C)(C)C)n1 [Terbuthylazine, terbuthylazine]
% action (Ipomoea; [3]): 30% | % action (Ipomoea; [4]): 30% | % action (Polygonum; [3]): 60% | % action (Polygonum; [4]): 60% | % action (Xanthium; [3]): 0% | % action (Xanthium; [4]): 0%
